Source: PubChem BioAssay (NCI)
“And” between values parts separate entries of the source, which are not always exact repeats. Equal values may be shown once.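 1) Cells in 96-well plates. 2) Compound, 48 h, 5 concentrations. 3) Linear interpolation between surrounding doses. 4) Unreached endpoint = highest concentration. GI50 is the concentration that inhibits growth by half. TGI: total growth inhibition.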

What was measured:
Assay in all cases: DTP human tumour cell line panel, 48 h
NCI-H23 lung = tested on: NCI-H23 lung
CCRF-CEM leukemia = tested on: CCRF-CEM leukemia
MDA-MB-435 = tested on: MDA-MB-435
OVCAR-8 ovarian = tested on: OVCAR-8 ovarian
SF-539 CNS = tested on: SF-539 CNS
RPMI-8226 leukemia = tested on: RPMI-8226 leukemia
OVCAR-3 ovarian = tested on: OVCAR-3 ovarian
NCI-H226 lung = tested on: NCI-H226 lung
UACC-257 melanoma = tested on: UACC-257 melanoma
BT-549 breast = tested on: BT-549 breast

SMILES | GI50 (NCI-H23 lung) | TGI (NCI-H23 lung) | GI50 (CCRF-CEM leukemia) | TGI (CCRF-CEM leukemia) | GI50 (MDA-MB-435) | TGI (MDA-MB-435) | GI50 (OVCAR-8 ovarian) | TGI (OVCAR-8 ovarian) | GI50 (SF-539 CNS) | TGI (SF-539 CNS) | GI50 (RPMI-8226 leukemia) | TGI (RPMI-8226 leukemia) | GI50 (OVCAR-3 ovarian) | TGI (OVCAR-3 ovarian) | GI50 (NCI-H226 lung) | TGI (NCI-H226 lung) | GI50 (UACC-257 melanoma) | TGI (UACC-257 melanoma) | GI50 (BT-549 breast) | TGI (BT-549 breast)
C/C(=C\C(=O)O[C@H]1[C@@H]2[C@H](C)CC[C@H]2[C@]2(C)O[C@@]1(C1CCCCC1)C[C@H]2OC(=O)CO)c1ccccc1 | 6.87 µM | 13.9 µM | 7 µM | 15.3 µM | 6.84 µM | 12.9 µM | 4.27 µM | 10.7 µM | 7.1 µM | 13.2 µM | 7.2 µM | 16.6 µM | 7.69 µM | 13.9 µM | 5.98 µM | 12.3 µM | 6.96 µM | 13.3 µM | 0.12 µM | 4.21 µM
O=C(CCCc1ccc(N(CCCl)CCCl)cc1)NCc1ccccc1 | 4.77 µM | 33.1 µM | 3.24 µM | 25.4 µM | 3.69 µM | 18 µM | 8.11 µM | > 100 µM | 17.8 µM | 73.8 µM | 4.57 µM | 27.4 µM | 13.7 µM | 38.1 µM | 14.6 µM | 47.2 µM | 12.1 µM | 55.5 µM | 3.86 µM | 27.2 µM
O=c1c2ccccc2nc(-c2cccc([N+](=O)[O-])c2)n1O | – | > 100 µM | – | > 38.2 µM | – | > 100 µM | – | 63.9 µM | – | > 100 µM | – | > 33.7 µM | – | > 94.3 µM | – | > 100 µM | – | > 100 µM | – | 80.8 µM
Cc1ccc(NC(=O)c2ccc(CN3CCN(C)CC3)cc2)cc1Nc1nc(-c2cccnc2)cs1 | 12.6 µM and > 10 µM | 29.7 µM and > 10 µM | 4.14 µM and 4.81 µM | 28.1 µM and > 10 µM | 8.24 µM and 5.64 µM | 21.6 µM and > 10 µM | 6.91 µM and 3.65 µM | 19.8 µM and > 10 µM | 1.7 µM and 1.13 µM | 6.81 µM and 2.48 µM | 3.19 µM and 2.31 µM | 18.2 µM and > 10 µM | 11.7 µM and 3.5 µM | 24.3 µM and > 10 µM | 7.94 µM and 4.12 µM | 29.6 µM and > 10 µM | 7.9 µM and 7.34 µM | 20.2 µM and > 10 µM | 8.5 µM and 3.79 µM | 22.1 µM and > 10 µM
O=P1(NCCCl)OCCCN1CCCl (stereo unspecified) | – | 454 µM | – | 400 µM | – | > 500 µM | – | 439 µM | – | 413 µM | – | 428 µM | – | 422 µM | – | 425 µM | – | 421 µM | – | > 500 µM
O=C1C=C(Nc2ccccc2)c2ccccc2C1=O | 1.98 µM | 4.91 µM | 3.54 µM | 14.7 µM | 1.93 µM | 3.7 µM | 2.71 µM | 12.8 µM | 1.81 µM | 3.47 µM | 2.24 µM | 7.49 µM | 1.96 µM | 5.27 µM | 1.93 µM | 4.21 µM | 1.79 µM | 3.25 µM | 1.73 µM | 3.16 µM
CCCCn1c(=O)[nH]c(N)c([C@@H]2c3c([nH]c(=O)n(CCCC)c3=O)Oc3ccc4ccccc4c32)c1=O | 1.73 µM | 3.7 µM | 0.326 µM | 1.38 µM | 1.7 µM | 3.11 µM | 1.82 µM | 3.51 µM | 7.86 µM | 20.4 µM | 3.48 µM | 13.5 µM | 1.63 µM | 2.98 µM | 4.96 µM | 25.2 µM | 2.41 µM | 5.78 µM | 1.83 µM | 3.57 µM
CCOc1ccc(N(C)c2ccc(/C=C/C3=[N+](C)c4ccccc4C3(C)C)cc2)cc1 | 0.125 µM | 1.34 µM | 0.0841 µM | 0.647 µM | 0.231 µM | 1.32 µM | 0.117 µM | 1.17 µM | 0.771 µM | 2.2 µM | 0.139 µM | 0.602 µM | 0.151 µM | 1.09 µM | 0.369 µM | 2.18 µM | 0.188 µM | 0.861 µM | 0.216 µM | 1.16 µM
O=C(/C=C\c1ccc(O)c(O)c1)c1ccccc1O | 12.7 µM | 32.8 µM | 0.645 µM | > 100 µM | 6.45 µM | 39.4 µM | 14.7 µM | 56.8 µM | 6.69 µM | 26.5 µM | 0.578 µM | 29.6 µM | 8.86 µM | 24.2 µM | 11 µM | 39.1 µM | 12.8 µM | 44 µM | 3.61 µM | 18.8 µM
O=C1NC(=O)C(c2c[nH]c3ccccc23)=C1c1c[nH]c2ccccc12 | 14.7 µM | > 25 µM | 10.5 µM | > 25 µM | 6.86 µM | > 25 µM | 15.8 µM | > 25 µM | 9.73 µM | > 25 µM | 9.48 µM | > 25 µM | 17.5 µM | > 25 µM | 3.83 µM | > 25 µM | 15.6 µM | > 25 µM | 10.3 µM | > 25 µM
CC[C@@]1(OP(=O)(O)O)C(=O)OCc2c1cc1n(c2=O)Cc2cc3ccccc3nc2-1 | 0.0827 µM | – | – | 0.118 µM and 0.319 µM | – | 2.11 µM | 0.427 µM | – | 0.0472 µM | 0.537 µM and 0.373 µM | 0.187 µM | 2.27 µM and 4.58 µM | 0.93 µM | 3.79 µM | 0.0379 µM | 1.16 µM and 0.66 µM | – | 2.58 µM and 3.86 µM | – | 4.55 µM
CS(=O)(=O)OCCN(CCOS(C)(=O)=O)c1ccc(C=Nc2ccc(-c3csc(COc4ccccc4)n3)cc2)cc1 | – | 14 µM | – | 35.6 µM | – | 31.6 µM | – | 19.6 µM | – | 14.7 µM | – | 67.5 µM | – | 15.3 µM | – | 18.2 µM | – | 28.3 µM | – | 37 µM
COc1cc2cc(NCc3cccc(Cl)c3)nc(C)c2cc1OC | 0.913 µM | 13.9 µM | 2.54 µM | > 100 µM | 0.969 µM | 6.26 µM | 3.04 µM | 23.6 µM | 1.37 µM | 7.54 µM | 0.539 µM | 23.4 µM | 3.72 µM | 16.3 µM | 4.35 µM | 26.3 µM | 4.61 µM | 19.3 µM | 1.47 µM | 8.96 µM
CC1CCCCCC(=O)c2c(O)cc(O)cc2CC(=O)O1 (stereo unspecified) | – | > 100 µM | – | > 100 µM | – | > 100 µM | – | > 100 µM | – | > 100 µM | – | > 100 µM | – | > 100 µM | – | > 100 µM | – | > 100 µM | – | > 100 µM
O=c1nc2n(-c3cccc(Cl)c3)c3ccc([N+](=O)[O-])cc3cc-2c(=O)[nH]1 | 4.94 µM | 10.6 µM | 2.09 µM | > 25 µM | 4.06 µM | 8.09 µM | 17 µM | > 25 µM | 4.4 µM | 11.8 µM | 3.13 µM | 10.8 µM | 1.08 µM | 4.42 µM | 5.51 µM | 13.6 µM | 9.78 µM | > 25 µM | 4.2 µM | 11.8 µM
CN1CCN(Cc2ccc(NC(=O)c3cncc(C#Cc4cnc(N)c5ncccc45)c3)cc2C(F)(F)F)CC1 | 0.284 µM | 6.26 µM | 0.324 µM | – | 0.247 µM | 1.44 µM | 0.58 µM | 3.51 µM | 0.306 µM | 1.47 µM | 0.401 µM | 8.2 µM | 0.781 µM | 4.88 µM | 0.267 µM | 12.5 µM | 0.639 µM | 5.6 µM | 5.1 µM | 23.6 µM
O=[N+]([O-])c1ccc(C2=NCCO2)cc1 | > 100 µM | > 100 µM | 3.15 µM | > 100 µM | > 100 µM | > 100 µM | > 100 µM | > 100 µM | > 100 µM | > 100 µM | > 100 µM | > 100 µM | > 100 µM | > 100 µM | > 100 µM | > 100 µM | > 100 µM | > 100 µM | > 100 µM | > 100 µM
COC(=O)[C@@H](C)C[C@H](Cc1ccccc1)NC(=O)c1nc([C@@H](C[C@H](C(C)C)N(C)C(=O)[C@@H](NC(=O)[C@H]2C[C@H](O)CCN2C)C(C)C)OC(C)=O)sc1C(C)C | 0.0232 µM | > 11.1 µM | 0.00525 µM | > 11.1 µM | < 0.00111 µM | 0.00288 µM | 0.0193 µM | > 11.1 µM | 0.0159 µM | 0.0505 µM | 0.00173 µM | > 9.92 µM | 0.00148 µM | – | 0.0257 µM | – | 5.89 µM | > 11.1 µM | 0.00416 µM | 0.131 µM
CC1=C(CCCOC(=O)[C@H](N)CC(C)C)C2=C(C)C3(CC3)[C@@](C)(O)C(=O)C2=C1 | 0.367 µM | 3.23 µM | 22.9 µM | > 100 µM | 3.28 µM | 27.6 µM | 2.13 µM | > 33.3 µM | 1.61 µM | 4.25 µM | 21.2 µM | 57.1 µM | 2.31 µM | 7.6 µM | 1.89 µM | 6.95 µM | 2.53 µM | 6.06 µM | 1.31 µM | 4.48 µM
ClC1=C(Cl)C(Cl)(C2(Cl)C(Cl)=C(Cl)C(Cl)=C2Cl)C(Cl)=C1Cl | 0.865 µM | 3.1 µM | 0.166 µM | 0.496 µM | 0.67 µM | 2.13 µM | 0.365 µM | 3.79 µM | 1.74 µM | 3.66 µM | 0.252 µM | 0.696 µM | 0.199 µM | 0.417 µM | 0.296 µM | 2.74 µM | 0.543 µM | 1.84 µM | 1.68 µM | 3.67 µM
